In patent US4937230A, “Method of healing wounds in horses” (ProCyte Corporation, priority 1987, dated 1990):

Assays:
barbed-wire cuts/gashes = test: Barbed-wire cuts/gashes, topical treatment of horses E, F and G; type: in vivo, horse
Description: (1) History: The skin of the hoof area of horse E was badly torn from barbed-wire.
Treatment: A cream base containing 0.4% GHL:CU and 6% DMSO was applied to the area 2 times/day.
(2) History: A 33-year-old horse (horse F) received a serious barbed wire wound to the lower leg directly into the cleft of the hoof. The wound area was ripped open, thereby dividing the hoof.
Treatment: A cream base with 0.4% GHL-CU and 6% DMSO was applied 1-2 times/day.
(3) History: A very deep barbed-wire induced gash on the upper rear leg of horse G was originally treated with antibiotics and closed with stitches.
Treatment: A cream containing 0.4% GHL-CU and 6% DMSO was applied for 2 weeks (1-2 times/day).

[1] = tested on: denuded area after injury (poor regrowth of hair); test: Denuded area after injury, topical treatment of horses B and C; type: in vivo, horse; conditions: cream base 0.4% GHL-CU and 6% DMSO
Experimental: (1) History: Approximately 2 months following wounding (lower leg, cause unspecified) healing occurred in horse B with poor regrowth of hair. The affected area measured approximately 2 square inches
Treatment: A cream base containing 0.4% GHL-CU and 6% DMSO was applied to the denuded area 3-4 times/week. Substantial hair growth was noted after treatment for approximately 2-3 weeks.
(2) History: An ulcerative sore on the back of Horse C below the saddle horn area (withers) was treated by a veterinarian using antibiotics and an antibacterial spray. […] Hair was absent from the partially healed sore.
Treatment: A cream base consisting of 0.4% GHL-CU and 6% DMSO was applied 1-2 times/day. Within 3 weeks, the infected ulcerative area resolved and hair was noted to be covering the wound.

puncture wound = test: Puncture wound, topical treatment of horse D; type: in vivo; conditions: upper leg, cream base 0.4% GHL-CU and 3% DMSO, twice/day
Experimental: History: A puncture wound of unknown origin occurred to the upper leg of horse D. No traditional therapy (antibiotics) was used prior to treatment.
Treatment: A cream base containing 0.4% GHL-CU and 3% DMSO was applied to the wound site shortly after the wound was discovered. […] The treatment was performed twice/day.

rope burn = test: Rope burn, topical treatment of horse H; type: in vivo; conditions: rear ankle, cream base 0.4% GHL-CU and 6% DMSO, 2 times/day
Description: The rope burn had removed all hair and skin. A veterinarian treated the burn with antibiotics and a nitrofurosone ointment. The scab was removed daily with washing. The injury responded, although quite slowly.
Treatment: A cream base with 0.4% GHL-CU and 6% DMSO was applied to the burn 2 times/day. The scab was left on the area during the treatment period.

[2] = tested on: ulcerating pressure-induced injury; test: Ulcerating pressure-induced injury, topical treatment of horse J; type: in vivo
Description: History: A 12-year-old thoroughbred (horse J) developed a large ulcer (2 inch diameter) on top of the withers (back beneath saddle horn area) A veterinarian treated the wound with antibiotics and an antibacterial spray. […] The wound continued to be large and inflamed after 3-4 months
Treatment: A cream containing 0.4% GHL:Cu with 6% DMSO was applied 1-2 times/day. The old scab fell off after a few days and was replaced by a new scab. After 2 weeks, the infection cleared up and ulceration began to be replaced by a skin covering. […] Approximately 1 month after beginning treatment, the ulcerative injury had resolved totally.

[3] = tested on: infected fly bites (raised nodules in the saddle region); test: Saddle sores from fly bites, topical treatment of horse A; type: in vivo; conditions: cream base 0.4% GHL-CU and 6% DMSO, topical twice/daily
Description: History: Horse A suffered from fly bites which became infected and developed into irritating raised nodules located on the back in the saddle region over a period of 8 weeks.
Treatment: A cream base containing 0.4% GHL-CU and 6% DMSO was applied twice/daily to the nodules. Within 4-5 days, softening of the nodules occurred along with diminishment of irritation and inflammation. Total healing occurred within 10-14 days.

[4] = tested on: granulation tissue ("proud flesh"); test: Excessive accumulation of granulation tissue (proud flesh), topical treatment of horse K; type: in vivo; conditions: cream base 0.4% GHL:CU and 3% DMSO for one month
Description: History: An accumulation of unsightly granulation tissue or granuloma (known as "proud flesh") was present over a poorly healed wound (sight unspecified) in horse K. Typically, proud flesh often accompanies an insufficiently healing wound, appearing bubbly, swollen and nodular.

[5] = tested on: full-thickness skin loss wound; test: Full-thickness skin loss, topical treatment of horse I; type: in vivo
Description: History: Horse I suffered from a traumatic injury to the anterior mid-calf aspect of the rear leg, caused by striking a fence while jumping. A flap of skin initially remained over the approximately 2.5 inch diameter wound. The leg was bandaged for a brief time, and the dead skin flap removed within 10 days post-injury. The leg appeared swollen and inflamed.
Inflammation and swelling had also diminished.

[6] = horse F, cream base 0.4% GHL-CU and 6% DMSO, 1-2 times/day

**Q.** With `NC(=O)N/N=C/c1ccc([N+](=O)[O-])o1` [nitrofurosone, reference compound] as the molecule, how does the “effect of prior treatment on the dehisced wound” value (barbed-wire cuts/gashes; horse G, 0.2% antibacterial agent) read?
**A.** The value was “ineffective”.

**Q.** For “Glycyl-L-Histidy-L-Lysine: Copper(II) [GHL:Cu]”, which “treatment time after which substantial hair growth was noted” value ([1]; horse B, lower leg, about 2 square inches, 3-4 times/week) is on record?
**A.** The value was 2-3 weeks.

**Q.** And the “time to resolution of infected ulcerative area with hair covering the wound” value ([1]; horse C, ulcerative sore on the back, 1-2 times/day)?
**A.** The value was at most 3 weeks.

**Q.** What about the “healing of the wound” value (puncture wound) of the same molecule?
**A.** The value was “healed within a few days”.

**Q.** And the “infection of the wound” value (puncture wound)?
**A.** Its value is “did not become infected”.

**Q.** What about the hair regrowth (rope burn) of the same molecule?
**A.** The hair regrowth was “hair grew back over the area”.

**Q.** What about the “healing of the wound” value (rope burn; scab left on) of the same molecule?
**A.** The value was “healed up within a week”.

**Q.** And the “time until infection cleared up and ulceration began to be replaced by skin covering” value ([2]; 2 inch diameter ulcer on withers, cream 0.4% GHL:Cu with 6% DMSO, 1-2 times/day)?
**A.** Its value is 2 weeks.

**Q.** What about the “time until ulcerative injury had resolved totally” value ([2]; cream 0.4% GHL:Cu with 6% DMSO, 1-2 times/day) of the same molecule?
**A.** Its value is “Approximately 1 month”.

**Q.** And the “hair growth over the area” value ([2]; shortly after 2 weeks)?
**A.** The value was “hair began growing over the area”.

**Q.** What about the “time to softening of the nodules with diminishment of irritation and inflammation” value [3] of the same molecule?
**A.** Its value is 4 to 5 days.

**Q.** What about the “time to total healing” value [3] of the same molecule?
**A.** Its value is 10 to 14 days.

**Q.** And the “swelling and appearance of proud flesh” value [4]?
**A.** Its value is “notable reduction in swelling and improved appearance”.

**Q.** And the “time until the wound scabbed over” value (barbed-wire cuts/gashes; horse E, hoof area, cream base 0.4% GHL:CU and 6% DMSO, 2 times/day)?
**A.** Its value is 5 days.

**Q.** And the “examination of the wound 3 weeks after treatment” value (barbed-wire cuts/gashes; horse E, hoof area, treatment halted after 5 days)?
**A.** Its value is “no evidence of infection”.

**Q.** What about the “new scab formation with reduction in wound size” value (barbed-wire cuts/gashes; horse F, lower leg/hoof cleft, cream base 0.4% GHL-CU and 6% DMSO, 1-2 times/day) of the same molecule?
**A.** The value was “within a few days”.

**Q.** And the “time to almost total healing” value (barbed-wire cuts/gashes; [6])?
**A.** Its value is at most 4 weeks.

**Q.** What about the “wound course over 2 weeks of treatment” value (barbed-wire cuts/gashes; [6]) of the same molecule?
**A.** Its value is “continuation of wound reduction and scab covering”.

**Q.** What about the “scab formation over open, raw tissue” value (barbed-wire cuts/gashes; horse G, dehisced gash upper rear leg, 6 inches x 1 inch, cream 0.4% GHL-CU and 6% DMSO, 1-2 times/day for 2 weeks) of the same molecule?
**A.** The value was “A scab formed quickly”.

**Q.** What about the wound closure (barbed-wire cuts/gashes; horse G, cream 0.4% GHL-CU and 6% DMSO, 1-2 times/day for 2 weeks) of the same molecule?
**A.** Its wound closure is “Within weeks, the wound had begun to close and appeared healthy”.

**Q.** And the “granulation of the gash” value (barbed-wire cuts/gashes; horse G, noted when scab was removed during cleaning)?
**A.** Its value is “granulated considerably”.

**Q.** Which results are given for “Glycyl-L-Histidyl-L-Lysine octyl ester:Copper (II) [GHL-octyl ester Cu]”?
**A.** wound size under continued treatment ([5]; 1 time/day over the following week): continued to decrease in size; reduction of wound size ([5]; about 2.5 inch diameter wound, cream base 0.4% GHL-octyl ester Cu and 6% DMSO, 2 times/day for 2 weeks): ~50%; inflammation and swelling ([5]; after 2 weeks, 2 times/day): diminished; scab formation ([5]; after 2 weeks, 2 times/day): a scab had formed over the area
